Measurements taken from patent US20260034123A1 (Cedilla Therapeutics, Inc., priority 2022, published 2026).

Columns and labels:
[1] = biological target: CDK2/Cyclin E1 (Homo sapiens, UniProt P24941); assay: ADP-Glo Luminescent Kinase Assay (CDK2/E1-37C); type: biochemical; settings: 0.18 nM CDK2/Cyclin E1, 100 μM ATP, Histone H1, 37° C.; read-out: ADPGLO (CDK2/E1-37C): IC50
Description: Inhibition of CDK2/Cyclin E1 activity by the presence of small molecules was evaluated using ADP-Glo Luminescent Kinase Assay (Promega). Activated CDK2/Cyclin E1 was incubated with its substrate Histone H1 (SignalChem H10-54N) in the kinase reaction buffer (100 μM ATP, 50 mM HEPES pH 7.5, 10 mM MgCl2, 1 mM EDTA, 2 mM DTT, 0.01% Brij35, 0.5 mg/mL BSA). Luminescence was recorded with an Envision plate reader (PerkinElmer).
Dose titrations of inhibitors in 100% DMSO were combined with 0.36 nM CDK2/Cyclin E1 in reaction buffer. The mixtures were incubated for 60 minutes at 37° C. before the addition of ATP and Histone H1 substrate to initiate the kinase reaction. The final conditions were 0.18 nM CDK2/Cyclin E1, 100 μM ATP, and […] Histone H1. The reactions were incubated at 37° C. for 90 minutes before being stopped with the addition of ADP-Glo reagent. This mixture was incubated at room temperature for 60 minutes before Kinase Detection Solution is added to generate luminescence. The stopped reactions were analyzed on an Envision plate reader. The conversion ratios were normalized to yield % activity, plotted against compound concentration, and fit to a four-parameter equation to determine the IC50 for each compound.

[2] = test system: Kuramochi cells RB-WT; assay: IncuCyte Kuramochi cell proliferation assay, RB-WT; type: cell-based; settings: 72 hours, cell count
Description: (§1) IncuCyte® assay was used to measure the effect of disclosed compounds on cell proliferation. Fluorescent microscopy images of cells were taken immediately after compound treatment and 72 hours later. Image analysis software was used to obtain cell counts as a function of compound concentration. Kuramochi cells labeled with mApple-H2B were seeded on 384-well assay-ready plates. Plates were placed in an IncuCyte® (Sartorius) and scanned at 0 and 72 hours. IncuCyte® software was used to count the number of fluorescent nuclei in each well. The fold change in cell count from 0 to 72 hours in wells treated with increasing compounds concentrations (10 pts, 1/2 log dilution, 20 µM top concentration) was normalized to DMSO control wells. The normalized cell counts were fit with dose response curves and a GI50 was calculated.

[3] = test system: Kuramochi cells RB-KO; assay: IncuCyte Kuramochi cell proliferation assay, RB-KO; type: cell-based; settings: 72 hours, cell count, batch mean
Description: as §1

SMILES	IC50 [1] [µM]	IC50 [2] [µM]	IC50 [3] [µM]
CC(C(=O)N1CC2(CN(C(=O)c3cnn(Cc4ccc(F)cc4)c3)C[C@H]2COCc2cccc(C3CCC(C(F)(F)F)CC3)c2C(=O)O)C1)C(F)(F)F (stereo partly drawn) [Compound I-97, 2-((((8S)-6-(1-(4-fluorobenzyl)-1H-pyrazole-4-carbonyl)-2-(3,3,3-trifluoro-2-methylpropanoyl)-2,6-diazaspiro[3.4]octan-8-yl)methoxy)methyl)-6-(4-(trifluoromethyl)cyclohexyl)benzoic acid]	≤ 0.5	5 to 10	> 10
O=C(O)c1c(COC[C@@H]2CN(C(=O)c3cnn(Cc4ccc(F)cc4)c3)CC23CN(C(=O)CC2(C(F)(F)F)CC2)C3)cccc1C1CCC(C(F)(F)F)CC1 (stereo partly drawn) [Compound I-98]	0.5 to 5	> 10	> 10
O=C(O)c1c(COC[C@@H]2CN(C(=O)c3cnn(Cc4ccc(F)cc4)c3)CC23CN(C(=O)C2COC2)C3)cccc1C1CCC(C(F)(F)F)CC1 (stereo partly drawn) [Compound I-99]	> 10	> 10	> 10
CC(C(=O)N1CC2(CN(C(=O)c3cnn(Cc4ccc(F)cc4)c3)C[C@H]2COCc2cccc(C3CCC(C(F)(F)F)CC3)c2C(=O)O)C1)(C(F)(F)F)C(F)(F)F (stereo partly drawn) [Compound I-100, (S)-2-(((6-(1-(4-fluorobenzyl)-1H-pyrazole-4-carbonyl)-2-(3,3,3-trifluoro-2-methyl-2-(trifluoromethyl)propanoyl)-2,6-diazaspiro[3.4]octan-8-yl)methoxy)methyl)-6-(4-(trifluoromethyl)cyclohexyl)benzoic acid]	≤ 0.5	> 10	> 10
CC(C)(C(=O)N1CC2(CN(C(=O)c3cnn(Cc4ccc(F)cc4)c3)C[C@H]2COCc2cccc(C3CCC(F)(F)CC3)c2C(=O)O)C1)C(F)(F)F [Compound I-101, (S)-2-(4,4-difluorocyclohexyl)-6-(((6-(1-(4-fluorobenzyl)-1H-pyrazole-4-carbonyl)-2-(3,3,3-trifluoro-2,2-dimethylpropanoyl)-2,6-diazaspiro[3.4]octan-8-yl)methoxy)methyl)benzoic acid]	≤ 0.5	0.5 to 5	> 10
O=C(O)Cc1c(COC[C@@H]2CN(C(=O)c3cnn(Cc4ccc(F)cc4)c3)CC23CN(C(=O)C2(C(F)(F)F)CC2)C3)cccc1C1CCC(C(F)(F)F)CC1 (stereo partly drawn) [Compound I-102, (S)-2-(2-(((6-(1-(4-fluorobenzyl)-1H-pyrazole-4-carbonyl)-2-(1-(trifluoromethyl)cyclopropane-1-carbonyl)-2,6-diazaspiro[3.4]octan-8-yl)methoxy)methyl)-6-(4-(trifluoromethyl)cyclohexyl)phenyl)acetic acid]	≤ 0.5	0.5 to 5	> 10
CC(C)(Oc1c(COC[C@@H]2CN(C(=O)c3cnn(Cc4ccc(F)cc4)c3)CC23CN(C(=O)C2(C(F)(F)F)CC2)C3)cccc1C1CCC(C(F)(F)F)CC1)C(=O)O (stereo partly drawn) [Compound I-108]	0.5 to 5	> 10	> 10
O=C(O)COc1c(COC[C@@H]2CN(C(=O)c3cnn(Cc4ccc(F)cc4)c3)CC23CN(C(=O)C2(C(F)(F)F)CC2)C3)cccc1C1CCC(C(F)(F)F)CC1 (stereo partly drawn) [Compound I-109, (S)-2-(2-(((6-(1-(4-fluorobenzyl)-1H-pyrazole-4-carbonyl)-2-(1-(trifluoromethyl)cyclopropane-1-carbonyl)-2,6-diazaspiro[3.4]octan-8-yl)methoxy)methyl)-6-(4-(trifluoromethyl)cyclohexyl)phenoxy)acetic acid]	≤ 0.5	> 10	> 10
O=C(O)c1ccc(C2CCC(C(F)(F)F)CC2)cc1COC[C@@H]1CN(C(=O)c2cnn(Cc3ccc(F)cc3)c2)CC12CN(C(=O)C1(C(F)(F)F)CC1)C2 (stereo partly drawn) [Compound I-111]	0.5 to 5	> 10	> 10
O=C(O)c1ccccc1Cn1cc(C(=O)N2CC(COCc3cccc(C4CCC(C(F)(F)F)CC4)c3C(F)(F)F)C3(C2)CN(C(=O)C2(C(F)(F)F)CC2)C3)cn1 (stereo not drawn) [Compound I-114]	≤ 0.5	> 10	> 10
CC1(C)C[C@@H]1C(=O)N1CC2(CN(C(=O)c3cnn(Cc4ccc(F)cc4C(F)(F)F)c3)C[C@H]2COCc2cccc(C3CCC(F)(F)CC3)c2C(=O)O)C1 [Compound I-118, 2-(4,4-difluorocyclohexyl)-6-(((2-((S)-2,2-dimethylcyclopropane-1-carbonyl)-6-(1-(4-fluoro-2-(trifluoromethyl)benzyl)-1H-pyrazole-4-carbonyl)-2,6-diazaspiro[3.4]octan-8-yl)methoxy)methyl)benzoic acid]	≤ 0.5	5 to 10	> 10
CC1(C)C[C@@H]1C(=O)N1CC2(CN(C(=O)c3cnn(Cc4ccc(F)cc4)c3)C[C@H]2COCc2c(F)ccc(C3CCC(F)(F)CC3)c2C(=O)O)C1 [Compound I-119, 6-(4,4-difluorocyclohexyl)-2-(((2-((S)-2,2-dimethylcyclopropane-1-carbonyl)-6-(1-(4-fluorobenzyl)-1H-pyrazole-4-carbonyl)-2,6-diazaspiro[3.4]octan-8-yl)methoxy)methyl)-3-fluorobenzoic acid]	≤ 0.5	0.5 to 5	> 10
CC(C)(C(=O)N1CC2(CN(C(=O)c3cnn(Cc4ccc(F)cc4C(F)(F)F)c3)C[C@H]2COCc2cccc(C3CCC(F)(F)CC3)c2C(=O)O)C1)C(F)(F)F [Compound I-127, (S)-2-(4,4-difluorocyclohexyl)-6-(((6-(1-(4-fluoro-2-(trifluoromethyl)benzyl)-1H-pyrazole-4-carbonyl)-2-(3,3,3-trifluoro-2,2-dimethylpropanoyl)-2,6-diazaspiro[3.4]octan-8-yl)methoxy)methyl)benzoic acid]	≤ 0.5	0.5 to 5	> 10
CC1(C)C[C@@H]1C(=O)N1CC2(CN(C(=O)c3cnn(Cc4ccc(F)cc4)c3)CC2COc2cccc(C3CCC(F)(F)CC3)c2C(=O)O)C1 (stereo partly drawn) [Compound I-128, 2-(4,4-difluorocyclohexyl)-6-((2-((S)-2,2-dimethylcyclopropane-1-carbonyl)-6-(1-(4-fluorobenzyl)-1H-pyrazole-4-carbonyl)-2,6-diazaspiro[3.4]octan-8-yl)methoxy)benzoic acid]	≤ 0.5	> 10	> 10
CC1(C)C[C@@H]1C(=O)N1CC2(CN(C(=O)c3cnn(Cc4ccc(F)cc4)c3)CC2COc2cccc(CC3CCC(F)(F)CC3)c2C(=O)O)C1 (stereo partly drawn) [Compound I-129]	≤ 0.5	> 10	> 10
CC1(C)C[C@@H]1C(=O)N1CC2(CN(C(=O)c3cnn(Cc4ccc(F)cc4)c3)CC2COc2cccc(OC3CCC(F)(F)CC3)c2C(=O)O)C1 (stereo partly drawn) [Compound I-130, 2-((4,4-difluorocyclohexyl)oxy)-6-((2-((S)-2,2-dimethylcyclopropane-1-carbonyl)-6-(1-(4-fluorobenzyl)-1H-pyrazole-4-carbonyl)-2,6-diazaspiro[3.4]octan-8-yl)methoxy)benzoic acid]	≤ 0.5	> 10	> 10
CC(C)(C(=O)N1CC2(CN(C(=O)c3cnn(Cc4ccc(F)cc4)c3)C[C@H]2COCc2cccc(N3CCC(C(F)(F)F)CC3)c2C(=O)O)C1)C(F)(F)F [I′-19, (S)-2-(((6-(1-(4-fluorobenzyl)-1H-pyrazole-4-carbonyl)-2-(3,3,3-trifluoro-2,2-dimethylpropanoyl)-2,6-diazaspiro[3.4]octan-8-yl)methoxy)methyl)-6-(4-(trifluoromethyl)piperidin-1-yl)benzoic acid]	≤ 0.5	0.5 to 5	> 10
CC(C)(C(=O)N1CC2(CN(C(=O)c3cnn(Cc4ccc(F)cc4)c3)C[C@H]2COCc2c(C(F)(F)F)ccc(C3CCC(F)(F)CC3)c2C(=O)O)C1)C(F)(F)F [I′-20]	≤ 0.5	5 to 10	> 10
CC(C)(C(=O)N1CC2(CN(C(=O)c3cnn(Cc4ccc(F)cc4)c3)C[C@H]2COCc2ccc(F)c(C3CCC(F)(F)CC3)c2C(=O)O)C1)C(F)(F)F [I′-21]	≤ 0.5	> 10	> 10
CC(C)(C(=O)N1CC2(CN(C(=O)c3cnn(Cc4ccc(F)cc4)c3)C[C@H]2COCc2cccc(C3CCC(F)(F)CC3)c2C(=O)NCCN2CCOCC2)C1)C(F)(F)F [I′-22]	≤ 0.5	> 10	> 10
